Molecules are shown by their SMILES.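 All cell lines were grown in 96-well plates and treated with compound for 48 hours. GI50 = concentration required for 50% inhibition of growth. At the TGI there is no net growth.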

The results in this text go back to PubChem BioAssay (NCI).

Some test systems named below: RXF 393 renal; HS 578T breast; SK-MEL-28 melanoma; SK-MEL-5 melanoma; HCT-116 colon; SK-MEL-2 melanoma; HCC-2998 colon; PC-3 prostate.
What all share (assay): NCI anticancer screen, dose series, 48 h

Take `O=c1c2sc(=S)n(-c3ccc(F)cc3)c2ncn1Cc1ccc(F)cc1F`: the GI50 was over 100000 nM with RXF 393 renal; 78.8 µM in the assay with HS 578T breast; over 100 µM in the assay with SK-MEL-28 melanoma; 84.3 µM in the assay with SK-MEL-5 melanoma; 81800 nM in the assay with HCT-116 colon; over 100 µM with SK-MEL-2 melanoma. Also, the GI50 is over 100 µM in the assay on HCC-2998 colon and 80800 nM with PC-3 prostate. Also, the TGI in the assay on RXF 393 renal, with HS 578T breast, in the assay on SK-MEL-28 melanoma, in the assay on SK-MEL-5 melanoma, in the assay with HCT-116 colon and in the assay on SK-MEL-2 melanoma was over 100 µM each time. Moreover, the TGI in the assay with HCC-2998 colon and with PC-3 prostate was over 100 µM each time.
In the case of `CS(=O)(=O)Nc1ccc2c(c1)oc(=O)c1ccccc12`, the TGI in the assay on RXF 393 renal, with HS 578T breast, with SK-MEL-28 melanoma, in the assay with SK-MEL-5 melanoma, in the assay with HCT-116 colon and in the assay with SK-MEL-2 melanoma was over 100 µM each time. Besides, the TGI with HCC-2998 colon and in the assay on PC-3 prostate was over 100 µM in each case.
On to `CC(C)=CCNc1ncnc2c1ncn2C1OC(CO)C(O)C1O` (stereo unspecified), for which the GI50 with RXF 393 renal was 488 nM; in the assay with HS 578T breast it was 0.684 µM; in the assay with SK-MEL-28 melanoma, over 346 µM; in the assay on SK-MEL-5 melanoma it was 5.74 µM; in the assay with HCT-116 colon, 499 nM; in the assay on SK-MEL-2 melanoma, 16.2 µM. Moreover, the GI50 in the assay on HCC-2998 colon was 4.49 µM; with PC-3 prostate, 616 nM. In addition, the TGI was 2.6 µM in the assay with RXF 393 renal; 4.33 µM in the assay on HS 578T breast; over 1000 µM in the assay on SK-MEL-28 melanoma; over 1000 µM with SK-MEL-5 melanoma; 5.77 µM in the assay with HCT-116 colon; 334 µM in the assay with SK-MEL-2 melanoma. The TGI was determined as 94.3 µM in the assay with HCC-2998 colon and 31 µM in the assay on PC-3 prostate.
Turning to `O=C(OC(CNc1cc(=O)n(Cc2ccccc2)c(=O)n1Cc1ccccc1)CN1CCCC1)c1ccccc1` (stereo unspecified), the GI50 in the assay with RXF 393 renal is 76100 nM; in the assay on HS 578T breast it was over 100 µM; with SK-MEL-28 melanoma, over 100 µM; in the assay with SK-MEL-5 melanoma it was over 100 µM; in the assay on HCT-116 colon, 56800 nM; in the assay on SK-MEL-2 melanoma, over 100 µM. The GI50 is over 100 µM with HCC-2998 colon and over 100000 nM in the assay with PC-3 prostate. Moreover, the TGI in the assay with RXF 393 renal, in the assay with HS 578T breast, in the assay with SK-MEL-28 melanoma, with SK-MEL-5 melanoma, in the assay with HCT-116 colon and in the assay on SK-MEL-2 melanoma was over 100 µM throughout. For the same molecule, the TGI with HCC-2998 colon and in the assay on PC-3 prostate was over 100 µM in each case.
As for `C=C1C(=O)O[C@@H]2C[C@@H]1CC/C(C)=C/CC/C(C)=C/CC[C@@]2(C)O`, the GI50 was 19100 nM in the assay on RXF 393 renal; 28.5 µM with HS 578T breast; 22.2 µM with SK-MEL-28 melanoma; 16.2 µM in the assay with SK-MEL-5 melanoma; 3060 nM with HCT-116 colon; 2.69 µM in the assay with SK-MEL-2 melanoma. The GI50 was 14 µM in the assay on HCC-2998 colon and 6730 nM in the assay on PC-3 prostate. The TGI was 45.6 µM in the assay with RXF 393 renal; 72.4 µM in the assay on HS 578T breast; 49.8 µM in the assay with SK-MEL-28 melanoma; 36.4 µM in the assay with SK-MEL-5 melanoma; 11.9 µM in the assay with HCT-116 colon; 12.5 µM with SK-MEL-2 melanoma. The TGI in the assay with HCC-2998 colon came to 28.7 µM; in the assay on PC-3 prostate it was 21.3 µM.
For `Cc1ccc(C)c(C2=C(c3cn(C)c4ccccc34)C(=O)NC2=O)c1`, the GI50 was 5930 nM in the assay with RXF 393 renal; over 25 µM in the assay on HS 578T breast; over 25 µM in the assay on SK-MEL-28 melanoma; over 25 µM with SK-MEL-5 melanoma; 7580 nM in the assay with HCT-116 colon; over 25 µM in the assay with SK-MEL-2 melanoma. Besides, the results for the GI50 in the assay on HCC-2998 colon and in the assay on PC-3 prostate were over 25 µM and 13800 nM, respectively. In addition, the TGI in the assay with RXF 393 renal, with HS 578T breast, with SK-MEL-28 melanoma, in the assay with SK-MEL-5 melanoma, in the assay on HCT-116 colon and with SK-MEL-2 melanoma was over 25 µM in each case. Further, the TGI in the assay on HCC-2998 colon and in the assay with PC-3 prostate was over 25 µM throughout.
As to `O=C1/C(=C/c2ccc(Br)cc2)COc2ccc(O)c(O)c21`, the GI50 is 1100 nM with RXF 393 renal; 1.54 µM with HS 578T breast; 1.55 µM in the assay on SK-MEL-28 melanoma; 1.4 µM in the assay on SK-MEL-5 melanoma; 892 nM with HCT-116 colon; 1.69 µM with SK-MEL-2 melanoma. For the same molecule, the GI50 is 1.54 µM in the assay with HCC-2998 colon and 599 nM with PC-3 prostate. In addition, the TGI worked out at 2.43 µM with RXF 393 renal; 6.77 µM in the assay on HS 578T breast; 3.25 µM with SK-MEL-28 melanoma; 2.84 µM in the assay with SK-MEL-5 melanoma; 2.4 µM in the assay with HCT-116 colon; 4.53 µM in the assay on SK-MEL-2 melanoma. Moreover, the TGI is 3.03 µM with HCC-2998 colon and 2.42 µM with PC-3 prostate.
On to `CCCCCCCCCCCCOC1C(C(COC2OC(C3COC(C)(C)O3)C3OC(C)(C)OC23)NC(=O)Nc2ccc(C(=O)O)cc2)OC2OC(C)(C)OC21` (stereo unspecified), for which the GI50 is 2260 nM in the assay with RXF 393 renal; 3.46 µM in the assay with HS 578T breast; 3.16 µM in the assay with SK-MEL-28 melanoma; 1.75 µM in the assay on SK-MEL-5 melanoma; 2870 nM in the assay on HCT-116 colon; 2.23 µM in the assay with SK-MEL-2 melanoma. Moreover, the figures for the GI50 with HCC-2998 colon and with PC-3 prostate were 2.05 µM and 2600 nM, respectively. Further, the TGI was determined as 4.05 µM in the assay on RXF 393 renal; 13.2 µM in the assay on HS 578T breast; 13 µM in the assay on SK-MEL-28 melanoma; 3.4 µM with SK-MEL-5 melanoma; 10.8 µM with HCT-116 colon; 4.82 µM in the assay with SK-MEL-2 melanoma. The TGI in the assay with HCC-2998 colon came out at 3.82 µM; in the assay with PC-3 prostate it was 7.58 µM.
Take `Cn1nc(N)c2cc([C@@H]3Nc4ccc5[nH]ncc5c4[C@H]4C5CCC(C5)[C@@H]34)ccc21` (stereo partly specified): the GI50 with RXF 393 renal is 227 nM; in the assay with HS 578T breast, 0.373 µM; with SK-MEL-28 melanoma it was 4.35 µM; in the assay on SK-MEL-5 melanoma it was 0.363 µM; in the assay with HCT-116 colon it was 448 nM; in the assay on SK-MEL-2 melanoma, 11.1 µM. The values for the GI50 in the assay on HCC-2998 colon and in the assay on PC-3 prostate were 1.5 µM and 418 nM, respectively. Moreover, the TGI in the assay with RXF 393 renal amounted to 0.825 µM; in the assay with HS 578T breast, 43.4 µM; in the assay with SK-MEL-28 melanoma, 29.1 µM; with SK-MEL-5 melanoma, 12.7 µM; in the assay on HCT-116 colon, 13.9 µM; with SK-MEL-2 melanoma it was 39.4 µM. For the same molecule, the results for the TGI in the assay with HCC-2998 colon and with PC-3 prostate were 13.4 µM and 19.8 µM, respectively.
